The source of these data is patent US7279565B2, “Molecular regulatory circuits to achieve sustained activation of genes of interest by a single stress” (priority 1998, dated 2007).

Holding throughout (format): cell-based
The test system of one assay is EcR/RXR. As to the kind of experiment: Firefly luciferase reporter assay of the Hsp70/E/GRE combination promoter in transfected EcR-293 cells. The settings on record: EcR-293 cells transfected with Hsp70/E/GRE-fLuc; ponasterone A for 1-2 days. As to the method: To test the Hsp70/E/GRE combination promoter and compare it with the hsp70B and E/GRE promoters, EcR-293 cells were co-transfected using Lipofectamine™ reagent (Life Technologies) with Hsp70/E/GRE-fLuc, Hsp70-fLuc or E/GRE-fLuc and pRL-CMV containing a constitutively expressed Renilla luciferase gene. One day after transfection, parallel cultures were either left untreated or were subjected to a heat treatment at 43-44° C. for 30 min or to ponasterone A (Invitrogen Corp.) for 1-2 days. Cells were harvested (after ponasterone exposure or 6-7 h after heat treatment), and firefly luciferase activities were determined using the Dual Luciferase Reporter System (Promega Corp.). […] EcR-293 cells expressing activatable EcR/RXR were obtained from Invitrogen Corporation and were cultured according to the manufacturer's instructions.
In general terms: A reporter such as luciferase makes a cellular process visible.

For assay [1], the target named is T1, transcription factor GLP65 (Homo sapiens, UniProt P06401).
T1 construct: expressed in transfected cells; host or cells: human HeLa cells, transient co-transfection
T1 sequence (P06401 679-913 limits assumed): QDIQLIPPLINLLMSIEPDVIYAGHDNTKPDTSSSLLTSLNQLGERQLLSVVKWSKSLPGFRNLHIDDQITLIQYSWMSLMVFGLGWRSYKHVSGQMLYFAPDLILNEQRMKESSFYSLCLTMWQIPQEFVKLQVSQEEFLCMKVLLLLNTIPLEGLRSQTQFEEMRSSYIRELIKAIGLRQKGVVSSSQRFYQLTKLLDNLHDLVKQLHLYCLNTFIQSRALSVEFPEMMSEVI
Nature of the assay: Molecular circuit Hsp70/GAL4-GLP65 + GAL4-fLuc in co-transfected HeLa cells, firefly luciferase assay. The conditions noted are these: 10 nM mifepristone with or without heat treatment 43-44° C. for 30-60 min, assayed two or three days later, FIG. 6B.
Protocol: (§1) To test the molecular circuits outlined in FIG. 6A, human HeLa cells were co-transfected with appropriate amounts of Hsp70/GAL4-GLP65 and GAL4-fLuc or GAL4-hGH using Lipofectamine™ reagent (Life Technologies). For correction of differences in transfection efficiency, a small amount of pRL-CMV expressing a Renilla luciferase was also included in transfection mixtures. One day after transfection, cultures were either left untreated, were administered 10 nM mifepristone, were heat-treated (43-44° C. for 30-60 min), or were administered mifepristone and subjected to heat treatment. Two or three days later, cells were harvested and assayed for firefly luciferase activity using the Dual Luciferase Reporter Assay System (Promega Corp.) or for hGH activity using an ELISA kit distributed by Roche, respectively.

Assay [2] addresses T2, transcription factor GLP65 (Homo sapiens, UniProt P06401+Q04206).
T2 construct: expressed in transfected cells
As to the kind of experiment: Stable HeLa-CAT line with genomic GAL4-fLuc and Hsp70/GAL4-GLP65-RKC transactivator, firefly luciferase assay. The conditions noted are these: stable HeLa-CAT clonal line; mifepristone and/or heat treatment at 43° C.; assayed one day later; FIG. 7.
Protocol: HeLa-CAT cells were cotransfected with GAL4-fLuc and Hsp70/GAL4-GLP65-RKC-neo (4:1 molar ratio), and transformants were selected using 400 μg/ml G418. Clonal lines were isolated. […] In the experiment shown in the Figure, parallel cultures of the cell line were either left untreated, or were heat-treated at 43° C. for the times indicated, exposed to mifepristone at the concentrations indicated, or both heat-treated and provided mifepristone. One day later, cells were harvested and assayed for firefly luciferase activity. […] Note that relative firefly luciferase activities are presented as fractions of the highest activity in the experiment.

Assay [3] addresses T1, transcription factor GLP65. Nature of the assay: Molecular circuit Hsp70/GAL4-GLP65 + GAL4-hGH in co-transfected HeLa cells, hGH ELISA. The settings on record: 10 nM mifepristone with or without heat treatment 43-44° C. for 30-60 min, assayed two or three days later, FIG. 6C. Background: An ELISA detects its analyte on a solid surface through an enzyme-linked reagent.
Protocol: as §1

T2 sequence (P06401+Q04206 fused): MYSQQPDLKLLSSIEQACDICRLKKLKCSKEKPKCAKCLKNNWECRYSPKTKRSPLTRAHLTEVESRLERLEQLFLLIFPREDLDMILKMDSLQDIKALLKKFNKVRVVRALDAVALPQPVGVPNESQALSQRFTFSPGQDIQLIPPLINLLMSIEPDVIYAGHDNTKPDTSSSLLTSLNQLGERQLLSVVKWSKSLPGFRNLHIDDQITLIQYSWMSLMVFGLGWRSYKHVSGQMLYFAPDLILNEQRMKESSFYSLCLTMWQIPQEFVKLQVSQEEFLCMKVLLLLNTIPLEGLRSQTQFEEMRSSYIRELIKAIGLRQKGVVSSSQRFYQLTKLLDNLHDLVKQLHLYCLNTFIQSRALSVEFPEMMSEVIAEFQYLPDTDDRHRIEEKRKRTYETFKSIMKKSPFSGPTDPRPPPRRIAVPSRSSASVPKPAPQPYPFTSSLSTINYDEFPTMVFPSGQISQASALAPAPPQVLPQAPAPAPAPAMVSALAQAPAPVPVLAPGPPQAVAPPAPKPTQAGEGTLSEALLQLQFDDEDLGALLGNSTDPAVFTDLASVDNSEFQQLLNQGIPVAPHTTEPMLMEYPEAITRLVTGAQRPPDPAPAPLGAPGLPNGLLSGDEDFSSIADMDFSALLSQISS

For `CC(C)CC[C@@H](O)[C@](C)(O)[C@H]1CC[C@@]2(O)C3=CC(=O)[C@@H]4C[C@@H](O)[C@@H](O)C[C@]4(C)[C@H]3CC[C@]12C` [ponasterone A], the “firefly luciferase activity (induction of the Hsp70/E/GRE combination promoter)” value with EcR/RXR is “strongly inducible by heat and ponasterone A”.

In the case of `CC#C[C@]1(O)CC[C@H]2[C@@H]3CCC4=CC(=O)CCC4=C3[C@@H](c3ccc(N(C)C)cc3)C[C@@]21C` [mifepristone], the “expression of fLuc gene (relative firefly luciferase activity)” value in assay [1] was “essentially silent, except when the cells containing the respective gene switches were stressed (heat treatment) as well as were administered mifepristone”. In addition, in assay [2], the “firefly luciferase activity of genomic luciferase gene” value was “Elevated levels of luciferase activity were only measured in cells that were both administered mifepristone and had been subjected to heat treatment”. In addition, in assay [3], the “expression of hGH gene (relative hGH activity)” value is recorded as “essentially silent, except when the cells containing the respective gene switches were stressed (heat treatment) as well as were administered mifepristone”.
